Results: patent US20140135310A1, “SULPHONAMIDE DERIVATIVES OF ALICYCLIC AMINES FOR THE TREATMENT OF CENTRAL NERVOUS SYSTEM DISEASES” (Adamed Sp. z o.o., priority 2011, published 2014)

Experiments:
[1] = target: T1, serotonin transporter (SERT) (Homo sapiens, UniProt P31645); test: Radioligand binding assay, serotonin transporter (SERT); conditions: binding assay, test compound 1×10^−6 M
T1 construct: expressed in transfected cells; host or cells: CHO cells
Outline: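 Radioligand competition binding with scintillation detection; specific binding is total minus binding under excess unlabelled ligand. Reported as % of control specific binding or % inhibition; IC50 from Hill-equation non-linear regression of competition curves, and Ki via Cheng-Prusoff using radioligand concentration and Scatchard-derived KD.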

[2] = target: dopaminergic receptors D3 (Homo sapiens, UniProt P35462); test: Radioligand binding assay, dopaminergic D3 receptors; conditions: test compound 1×10^−6 M
dopaminergic receptors D3, sequence (P35462 whole entry): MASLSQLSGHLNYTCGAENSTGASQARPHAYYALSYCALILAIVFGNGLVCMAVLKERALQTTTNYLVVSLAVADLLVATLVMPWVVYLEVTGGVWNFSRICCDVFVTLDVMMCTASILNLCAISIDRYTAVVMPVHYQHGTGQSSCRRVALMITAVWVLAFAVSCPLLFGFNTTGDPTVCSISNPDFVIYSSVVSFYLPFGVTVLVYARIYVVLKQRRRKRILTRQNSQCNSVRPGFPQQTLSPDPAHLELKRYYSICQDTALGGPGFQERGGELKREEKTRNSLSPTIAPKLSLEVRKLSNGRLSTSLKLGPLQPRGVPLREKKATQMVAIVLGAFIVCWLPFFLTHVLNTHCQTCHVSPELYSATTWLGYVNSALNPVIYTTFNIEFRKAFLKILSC
Outline: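 Competition radioligand binding at human D2, D3 and D4.4 receptors, detected by scintillation counting; nonspecific binding defined with excess unlabelled ligand. Results as percent inhibition of control specific binding; IC50 by Hill-equation nonlinear regression; Ki via Cheng-Prusoff, with radioligand KD from Scatchard plot.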

5-HT6 receptor = target: T2, 5-HT6 receptor (Homo sapiens, UniProt P50406); test: Radioligand binding assay, serotoninergic 5-HT6 receptors; conditions: for inhibition at 1 µM: binding assay result in %, Table 5a; for Ki: read-out: Inhibition constants Ki, 5-HT6
T2 construct: purchased PerkinElmer
T2 sequence (P50406 whole entry): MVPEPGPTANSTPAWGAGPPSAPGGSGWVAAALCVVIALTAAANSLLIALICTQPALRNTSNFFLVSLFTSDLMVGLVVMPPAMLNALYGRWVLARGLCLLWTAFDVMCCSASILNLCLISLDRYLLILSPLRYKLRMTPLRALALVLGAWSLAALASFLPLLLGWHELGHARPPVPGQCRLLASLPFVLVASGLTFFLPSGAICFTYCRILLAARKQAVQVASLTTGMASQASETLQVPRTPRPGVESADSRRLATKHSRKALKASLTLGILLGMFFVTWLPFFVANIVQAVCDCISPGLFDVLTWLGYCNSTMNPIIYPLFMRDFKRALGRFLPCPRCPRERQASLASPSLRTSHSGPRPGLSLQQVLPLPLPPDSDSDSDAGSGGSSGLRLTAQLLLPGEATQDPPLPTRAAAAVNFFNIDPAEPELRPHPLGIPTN
Outline: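 Values are Ki from Cheng–Prusoff, taking IC50 from Hill nonlinear regression of competition curves and KD from a Scatchard plot. Specific binding was total minus binding with excess unlabelled ligand. Radioligand displacement was detected by scintillation counting, and data were also reported as percent of control specific binding.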

α2C adrenergic receptors = target: T3, α2C adrenergic receptors (Homo sapiens, UniProt P18825); test: Radioligand binding assay, adrenergic α2C receptors; conditions: test compound 1×10^−6 M
T3 construct: expressed in transfected cells; host or cells: CHO cells
T3 sequence (P18825 1-462): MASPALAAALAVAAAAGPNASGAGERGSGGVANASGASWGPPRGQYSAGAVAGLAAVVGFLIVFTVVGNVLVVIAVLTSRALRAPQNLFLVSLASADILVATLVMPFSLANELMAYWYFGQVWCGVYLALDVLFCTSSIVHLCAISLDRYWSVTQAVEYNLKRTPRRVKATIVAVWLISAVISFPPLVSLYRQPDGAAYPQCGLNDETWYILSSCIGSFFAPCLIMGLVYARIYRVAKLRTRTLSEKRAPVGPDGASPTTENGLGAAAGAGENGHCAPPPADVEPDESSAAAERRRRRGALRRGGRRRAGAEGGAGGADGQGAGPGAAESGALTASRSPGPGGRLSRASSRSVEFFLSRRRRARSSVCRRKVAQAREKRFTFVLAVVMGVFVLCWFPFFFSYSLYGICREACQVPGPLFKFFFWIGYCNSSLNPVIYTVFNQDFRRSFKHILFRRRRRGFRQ
Description: (§1) The specific ligand binding to the receptors is defined as the difference between the total binding and the non-specific binding determined in the presence of the excess of unlabelled ligand.
(§2) The results are expressed as a percent of control specific binding ((measured specific binding/control specific binding)×100) and as a percent inhibition of control specific binding (100−((measured specific binding/control specific binding)×100)) obtained in the presence of the test compounds. The specific ligand binding to the receptors is defined as the difference between the total binding and the nonspecific binding determined in the presence of an excess of unlabelled ligand. Scintillation counting was the method of detection of ligand binding. The IC50 values (concentration causing a half-maximal inhibition of control specific binding) were determined by non-linear regression analysis of the competition curves generated with mean replicate values using Hill equation curve fitting (Y=D+[(A−D)/(1+(C/C50)nH)], where Y=specific binding, D=minimum specific binding, A=maximum specific binding, C=compound concentration, C50=IC50, and nH=slope factor). This analysis was performed using a software developed at Cerep (Hill software) and validated by comparison with data generated by the commercial software SigmaPlot® 4.0 for Windows® (© 1997 by SPSS Inc.). The inhibition constants (Ki) were calculated using the Cheng Prusoff equation (Ki=IC50/(1+(L/KD)), where L=concentration of radioligand in the assay, and KD=affinity of the radioligand for the receptor). A scatchard plot was used to determine the Kd.
Experimental conditions for tests are given in Table 7, and results of tests for representative compounds are given in Tables 8 (α1 receptors) and in Tables 9 (α2C receptors).

[3] = target: dopaminergic receptors D2 (Homo sapiens, UniProt P14416); test: Radioligand binding assay, dopaminergic D2 receptors; conditions: for inhibition at 1 µM: binding assay, test compound 1×10^−6 M; for Ki: read-out: Inhibition constants Ki for D2 receptors, D2
dopaminergic receptors D2, sequence (P14416 whole entry): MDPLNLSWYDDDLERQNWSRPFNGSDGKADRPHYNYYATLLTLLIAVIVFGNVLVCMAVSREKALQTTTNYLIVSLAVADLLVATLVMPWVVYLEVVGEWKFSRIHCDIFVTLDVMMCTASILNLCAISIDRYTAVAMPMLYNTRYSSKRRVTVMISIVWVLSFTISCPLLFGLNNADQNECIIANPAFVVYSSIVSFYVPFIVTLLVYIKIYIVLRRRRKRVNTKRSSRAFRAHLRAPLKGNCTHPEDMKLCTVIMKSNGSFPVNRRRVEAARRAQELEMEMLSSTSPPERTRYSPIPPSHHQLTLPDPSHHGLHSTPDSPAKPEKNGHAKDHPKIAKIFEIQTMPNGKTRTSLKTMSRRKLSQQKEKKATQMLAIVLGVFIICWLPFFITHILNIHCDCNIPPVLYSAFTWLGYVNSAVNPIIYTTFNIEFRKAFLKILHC
Outline: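 Competition binding with scintillation counting of bound radioligand; specific binding taken as total minus non-specific binding measured with excess unlabelled ligand. IC50 obtained by Hill-equation non-linear regression of replicate-mean curves, then converted to Ki via Cheng–Prusoff using radioligand concentration and Scatchard-derived KD.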

5-HT2C receptor = target: T4, 5-HT2C receptor (Homo sapiens, UniProt P28335); test: Radioligand binding assay, serotoninergic 5-HT2C receptors; conditions: test compound 1×10^−6 M
T4 construct: expressed in transfected cells; host or cells: HEK-293 cells
T4 sequence (P28335 33-458): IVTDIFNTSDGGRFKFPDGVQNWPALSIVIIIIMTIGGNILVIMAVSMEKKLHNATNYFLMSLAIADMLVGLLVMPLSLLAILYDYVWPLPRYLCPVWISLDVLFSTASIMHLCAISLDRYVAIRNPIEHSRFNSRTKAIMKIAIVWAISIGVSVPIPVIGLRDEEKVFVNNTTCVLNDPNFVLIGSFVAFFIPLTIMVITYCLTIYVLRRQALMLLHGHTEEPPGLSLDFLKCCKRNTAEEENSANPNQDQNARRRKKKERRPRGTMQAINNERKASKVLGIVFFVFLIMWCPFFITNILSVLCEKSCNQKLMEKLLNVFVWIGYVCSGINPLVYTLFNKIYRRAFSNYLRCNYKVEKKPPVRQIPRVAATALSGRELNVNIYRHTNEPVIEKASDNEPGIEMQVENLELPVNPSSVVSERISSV
Description: as §1, §2
Experimental conditions for tests are given in Table 4, and results of tests for representative compounds of the invention are given in Table 5a and 5b (receptors 5-HT1A, 5-HT2A, 5-HT6 and 5-HT7) and in Table 6 (receptors 5-HT2C).

T1 sequence (P31645 whole entry): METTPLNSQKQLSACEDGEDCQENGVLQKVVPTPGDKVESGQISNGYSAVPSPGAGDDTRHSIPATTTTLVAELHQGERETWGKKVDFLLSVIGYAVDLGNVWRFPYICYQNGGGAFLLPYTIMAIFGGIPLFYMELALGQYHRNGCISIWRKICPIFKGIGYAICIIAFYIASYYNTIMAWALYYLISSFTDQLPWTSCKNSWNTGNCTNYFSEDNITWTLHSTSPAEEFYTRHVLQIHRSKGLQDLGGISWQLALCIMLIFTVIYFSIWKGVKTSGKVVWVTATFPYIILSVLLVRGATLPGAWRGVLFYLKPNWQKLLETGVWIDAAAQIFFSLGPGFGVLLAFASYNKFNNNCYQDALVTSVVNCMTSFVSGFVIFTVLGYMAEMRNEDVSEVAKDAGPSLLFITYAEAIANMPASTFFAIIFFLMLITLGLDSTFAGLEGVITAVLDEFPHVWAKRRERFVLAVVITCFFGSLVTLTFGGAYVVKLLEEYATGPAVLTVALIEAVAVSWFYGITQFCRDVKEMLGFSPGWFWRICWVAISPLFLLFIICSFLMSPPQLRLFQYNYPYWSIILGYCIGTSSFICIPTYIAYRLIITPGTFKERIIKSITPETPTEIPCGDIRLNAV

Cc1c(S(=O)(=O)N[C@@H]2CCN(CCCc3noc4cc(F)ccc34)C2)sc2ccc(Cl)cc12 [Compound 204, 5-Chloro-N-[(3R)-1-[3-(6-fluoro-1,2-benzoxazol-3-yl)propyl]pyrrolidin-3-yl]-3-methyl-benzothiophene-2-sulphonamide]
inhibition at 1 µM [1]: 70%
inhibition at 1 µM [2]: 96%
inhibition at 1 µM (5-HT6 receptor): 97%
Ki (5-HT6 receptor): 6.9 nM
inhibition at 1 µM (α2C adrenergic receptors): 89%
inhibition at 1 µM [3]: 98%
Ki [3]: 0.4 nM
inhibition at 1 µM (5-HT2C receptor): 87%

Cn1ccc2cc(S(=O)(=O)NC3CCN(CCCc4noc5cc(F)ccc45)C3)ccc21 (stereo not drawn) [Compound 218, N-[1-[3-(6-Fluoro-1,2-benzoxazol-3-yl)propyl]pyrrolidin-3-yl]-1-methyl-indole-5-sulphonamide]
inhibition at 1 µM [1]: 95%
inhibition at 1 µM [2]: 95%
inhibition at 1 µM (5-HT6 receptor): 95%
inhibition at 1 µM (α2C adrenergic receptors): 94%
inhibition at 1 µM [3]: 99%
inhibition at 1 µM (5-HT2C receptor): 82%

COc1ccc2cc(S(=O)(=O)N[C@@H]3CCN(CCCc4noc5cc(F)ccc45)C3)ccc2c1 [Compound 230, N-[(3R)-1-[3-(6-Fluoro-1,2-benzoxazol-3-yl)propyl]pyrrolidin-3-yl]-6-methoxy-naphthalene-2-sulphonamide]
inhibition at 1 µM [1]: 75%
inhibition at 1 µM [2]: 99%
inhibition at 1 µM (5-HT6 receptor): 96%
Ki (5-HT6 receptor): 15 nM
inhibition at 1 µM (α2C adrenergic receptors): 92%
inhibition at 1 µM [3]: 99%
Ki [3]: 1.1 nM
inhibition at 1 µM (5-HT2C receptor): 91%

COc1ccc2cc(S(=O)(=O)N[C@H]3CCN(CCCc4noc5cc(F)ccc45)C3)ccc2c1 [Compound 231, N-[(3S)-1-[3-(6-Fluoro-1,2-benzoxazol-3-yl)propyl]pyrrolidin-3-yl]-6-methoxy-naphthalene-2-sulphonamide]
inhibition at 1 µM [1]: 63%
inhibition at 1 µM [2]: 91%
inhibition at 1 µM (5-HT6 receptor): 86%
Ki (5-HT6 receptor): 79 nM
inhibition at 1 µM (α2C adrenergic receptors): 89%
inhibition at 1 µM [3]: 95%
Ki [3]: 6.4 nM
inhibition at 1 µM (5-HT2C receptor): 75%

O=S(=O)(NCC1CCN(CCCc2noc3cc(F)ccc23)C1)c1ccc2cc(Cl)ccc2c1 (stereo not drawn) [Compound 237, 6-Chloro-N-[[1-[3-(6-fluoro-1,2-benzoxazol-3-yl)propyl]pyrrolidin-3-yl]methyl]naphthalene-2-sulphonamide]
inhibition at 1 µM [1]: 61%
inhibition at 1 µM [2]: 89%
inhibition at 1 µM (5-HT6 receptor): 87%
inhibition at 1 µM (α2C adrenergic receptors): 82%
inhibition at 1 µM [3]: 97%
inhibition at 1 µM (5-HT2C receptor): 79%

O=S(=O)(NCC1CCN(CCCc2noc3cc(F)ccc23)C1)c1ccc(-c2ccccc2)cc1 (stereo not drawn) [Compound 241, N-[[1-[3-(6-Fluoro-1,2-benzoxazol-3-yl)propyl]pyrrolidin-3-yl]methyl]-4-phenyl-benzenesulphonamide]
inhibition at 1 µM [1]: 71%
inhibition at 1 µM [2]: 87%
inhibition at 1 µM (5-HT6 receptor): 68%
inhibition at 1 µM (α2C adrenergic receptors): 87%
inhibition at 1 µM [3]: 81%
inhibition at 1 µM (5-HT2C receptor): 66%

O=S(=O)(NCC1CCN(CCOc2cccc3c2OCCO3)C1)c1ccc(C(F)(F)F)cc1 (stereo not drawn) [Compound 293, N-[[1-[2-(2,3-Dihydro-1,4-benzodioxin-5-yloxy)ethyl]pyrrolidin-3-yl]methyl]-4-(trifluoromethyl)benzenesulphonamide]
inhibition at 1 µM [1]: 82%
inhibition at 1 µM [2]: 60%
inhibition at 1 µM (5-HT6 receptor): 47%
inhibition at 1 µM (α2C adrenergic receptors): 95%
inhibition at 1 µM [3]: 66%
inhibition at 1 µM (5-HT2C receptor): 50%

O=S(=O)(NCC1CCN(CCOc2cccc3c2OCCO3)C1)c1cccc(F)c1 (stereo not drawn) [Compound 298, N-[[1-[2-(2,3-Dihydro-1,4-benzodioxin-5-yloxy)ethyl]pyrrolidin-3-yl]-methyl]-3-fluoro-benzenesulphonamide]
inhibition at 1 µM [1]: 72%
inhibition at 1 µM [2]: 35%
inhibition at 1 µM (5-HT6 receptor): 40%
inhibition at 1 µM (α2C adrenergic receptors): 94%
inhibition at 1 µM [3]: 52%
inhibition at 1 µM (5-HT2C receptor): 37%

O=S(=O)(NCC1CCN(CCOc2cccc3c2OCCO3)C1)c1ccc(F)cc1 (stereo not drawn) [Compound 300, N-[[1-[2-(2,3-Dihydro-1,4-benzodioxin-5-yloxy)ethyl]pyrrolidin-3-yl]-methyl]-4-fluoro-benzenesulphonamide]
inhibition at 1 µM [1]: 64%
inhibition at 1 µM [2]: 30%
inhibition at 1 µM (5-HT6 receptor): 38%
inhibition at 1 µM (α2C adrenergic receptors): 92%
inhibition at 1 µM [3]: 35%
inhibition at 1 µM (5-HT2C receptor): 34%

O=S(=O)(NCC1CCN(CCOc2cccc3c2OCCO3)C1)c1cccc(O)c1 (stereo not drawn) [Compound 303, N-[[1-[2-(2,3-Dihydro-1,4-benzodioxin-5-yloxy)ethyl]pyrrolidin-3-yl]-methyl]-3-hydroxy-benzenesulphonamide]
inhibition at 1 µM [1]: 73%
inhibition at 1 µM [2]: 52%
inhibition at 1 µM (5-HT6 receptor): 48%
inhibition at 1 µM (α2C adrenergic receptors): 100%
inhibition at 1 µM [3]: 79%
inhibition at 1 µM (5-HT2C receptor): 47%

O=S(=O)(NCC1CCN(CCOc2cccc3c2OCCO3)C1)c1ccc(Br)cc1 (stereo not drawn) [Compound 305, 4-Bromo-N-[[1-[2-(2,3-dihydro-1,4-benzodioxin-5-yloxy)ethyl]pyrrolidin-3-yl]methyl]benzenesulphonamide]
inhibition at 1 µM [1]: 94%
inhibition at 1 µM [2]: 48%
inhibition at 1 µM (5-HT6 receptor): 52%
inhibition at 1 µM (α2C adrenergic receptors): 96%
inhibition at 1 µM [3]: 57%
inhibition at 1 µM (5-HT2C receptor): 59%

O=S(=O)(NCC1CCN(CCOc2cccc3c2OCCO3)C1)c1ccc2c(c1)CCO2 (stereo not drawn) [Compound 306, N-[[1-[2-(2,3-Dihydro-1,4-benzodioxin-5-yloxy)ethyl]pyrrolidin-3-yl]-methyl]-2,3-dihydrobenzofuran-5-sulphonamide]
inhibition at 1 µM [1]: 90%
inhibition at 1 µM [2]: 26%
inhibition at 1 µM (5-HT6 receptor): 45%
inhibition at 1 µM (α2C adrenergic receptors): 98%
inhibition at 1 µM [3]: 51%
inhibition at 1 µM (5-HT2C receptor): 36%

Cn1ccc2cc(S(=O)(=O)NCC3CCN(CCOc4cccc5c4OCCO5)C3)ccc21 (stereo not drawn) [Compound 308, N-[[1-[2-(2,3-Dihydro-1,4-benzodioxin-5-yloxy)ethyl]pyrrolidin-3-yl]methyl]-1-methyl-indole-5-sulphonamide]
inhibition at 1 µM [1]: 95%
inhibition at 1 µM [2]: 43%
inhibition at 1 µM (5-HT6 receptor): 44%
inhibition at 1 µM (α2C adrenergic receptors): 96%
inhibition at 1 µM [3]: 57%
inhibition at 1 µM (5-HT2C receptor): 61%

Cc1cc(S(=O)(=O)NCC2CCN(CCOc3cccc4c3OCCO4)C2)c(C)s1 (stereo not drawn) [Compound 312, N-[[1-[2-(2,3-Dihydro-1,4-benzodioxin-5-yloxy)ethyl]pyrrolidin-3-yl]methyl]-2,5-dimethylthiophene-3-sulphonamide]
inhibition at 1 µM [1]: 87%
inhibition at 1 µM [2]: 36%
inhibition at 1 µM (5-HT6 receptor): 19%
inhibition at 1 µM (α2C adrenergic receptors): 94%
inhibition at 1 µM [3]: 36%
inhibition at 1 µM (5-HT2C receptor): 55%
